Data as given in patent EP0040696B1, “Aminothiadiazoles as gastric secretion inhibitors” (Merck & Co., Inc., priority 1980, dated 1981).

Columns and labels:
gastric secretion = test: Gastric secretion inhibitory activity of intermediate compounds (test not specified)
Excerpt: Thus, such intermediate compounds are deemed to constitute part of this invention.

[1] = system: histamine evoked gastric secretion; test: Inhibition of histamine evoked gastric secretion in dogs with a chronic gastric fistula; type: in vivo, female beagle dogs; settings: Canis lupus familiaris, iv, 0.5 h, read-out: IV ED50 (mg/kg) Total acid output
Experimental: […] Studies are performed in female beagle dogs with a chronic gastric fistula. The test compounds are administered i.v. at 0 min. Gastric secretion is stimulated by administration of a maximal secretory dose of histamine dihydrochloride ([…], base, s.c.) at 0 min. Gastric output is collected by gravity drainage for three 30 min periods (0-30, 30-60 and 60-90 min). Output volume (ml) is measured and an aliquot is titrated to pH 7 to determine acid concentration (titratable acid mEq/L); total acid output (mEq) is calculated as the product of volume and acid concentration. […]. Percent.inhibition of volume, acid concentration and total acid output is calculated relative to a placebo trial in the same animals; ED50 values are determined by linear regression analysis.

For CCOC1=NS(=O)(=O)N=C1NCCSCc1ccc(CN(C)C)o1 [3-N-[2-[(5-dimethylaminomethyl-2-furanyl)methylthio]ethyl]amino-4-ethoxy-1,2,5-thiadiazde-1,1-dioxide], the “gastric secretion inhibitory activity” value (gastric secretion) was “substantial gastric secretion inhibitory activity”.
CCOc1n[s+]([O-])nc1NCCSCc1ccc(CN(C)C)o1 (stereo not shown) [3-N-[2-[(5-dimethylaminomethyl-2-furanyl)methylthio]ethyl]amino-4-ethoxy-1,2,5-thiadiazole-1-oxide] was tested, and the “gastric secretion inhibitory activity” value (gastric secretion) was “substantial gastric secretion inhibitory activity”.
CN(C)Cc1ccc(CSCCNc2n[nH]c(N)n2)o1 [C, 3-N-[2-[(5-Dimethylaminomethyl-2-furanyl)methylthio]ethyl]amino-5-amino-1,2,4-triazole] gave an ED50 [1] of 1.1 mg/kg.
CNC(=NCCSCc1[nH]cnc1C)NC#N [D, N-Cyano-N'-methyl-N''-[2-((4-methyl-5-imidazolyl)methylthio)ethyl]guanidine] showed an ED50 [1] of 1.8 mg/kg.
